Where “and” joins values, the source holds several entries; their conditions need not be identical. Equal values may be shown once.
Experiments:
[1] = molecular target: Human VPAC1 (VIP1) (Homo sapiens, UniProt P32241); assay: Radioligand binding: Human VPAC1
[2] = test system: rat esophagus; assay: Rat esophageal relaxation; format: in vivo; conditions: cumulative i.d. dosing, anesthetized rats
[3] = molecular target: Rat α2 (non-selective); assay: Radioligand binding: Rat α2; conditions: [3H]-RX 821002 0.5 nM
[4] = molecular target: Human A1 (Homo sapiens, UniProt P30542); assay: Radioligand binding: Human A1
[5] = molecular target: Human μ (Homo sapiens, UniProt P35372); assay: Radioligand binding: Human μ opiate receptor
[6] = molecular target: Mouse sst (non-selective); assay: Radioligand binding: Mouse sst; conditions: [125I]-Tyr11-somatostatin 0.05 nM
[7] = molecular target: Rat BB (non-selective); assay: Radioligand binding: Rat BB; conditions: [125I]-[Tyr4]-bombesin 0.01 nM
[8] = molecular target: Human Y1 (Homo sapiens, UniProt P25929); assay: Radioligand binding: Human Y1
[9] = molecular target: Human β2 (Homo sapiens, UniProt P07550); assay: Radioligand binding: Human β2
[10] = molecular target: Rat σ (non-selective); assay: Radioligand binding: Rat σ; conditions: [3H]-DTG 8 nM
[11] = molecular target: Human 5-HT transporter (Homo sapiens, UniProt P31645); assay: Radioligand binding: Human 5-HT transporter
[12] = molecular target: Human V1a (Homo sapiens, UniProt P37288); assay: Radioligand binding: Human V1a
[13] = molecular target: Rat α7 nAChR (α-BGTX-sensitive) (Rattus norvegicus, UniProt Q05941); assay: biochemical; format: binding
[14] = molecular target: Guinea pig H1 (Cavia porcellus, UniProt P31389); assay: Radioligand binding: Guinea pig H1
[15] = molecular target: Human D1 (Homo sapiens, UniProt P21728); assay: Radioligand binding: Human D1
[16] = molecular target: 5-HT4 receptor (Cavia porcellus, UniProt O70528); assay: Guinea pig colonic longitudinal muscle/myenteric plexus; conditions: isolated tissue, % of primed 5-HT (0.3 μM) maximum
[17] = molecular target: Human COX1 (Homo sapiens, UniProt P23219); assay: Enzyme inhibition: Human COX1
[18] = molecular target: Bovine 5-HT1D (Bos taurus, UniProt F1MMU1); assay: Radioligand binding: Bovine 5-HT1D
[19] = test system: conscious guinea pigs; assay: Guinea pig colonic transit of carmine red dye; format: in vivo; conditions: s.c., maximum effect already achieved
[20] = molecular target: Human B2 (Homo sapiens, UniProt P30411); assay: Radioligand binding: Human B2
[21] = molecular target: Human 5-HT7 (Homo sapiens, UniProt P34969); assay: Radioligand binding: Human 5-HT7
[22] = molecular target: K+ATP channel (Rattus norvegicus, UniProt Q09429); assay: Radioligand binding: K+ATP channel; conditions: read-out: % Inhibition of specific binding (1 μM)
[23] = molecular target: Rat CRF1 (Rattus norvegicus, UniProt P35353); assay: Radioligand binding: Rat CRF1
[24] = molecular target: Human M5 (Homo sapiens, UniProt P08912); assay: Radioligand binding: Human M5
[25] = molecular target: Human CGRP (Homo sapiens, UniProt O60894+Q16602); assay: Radioligand binding: Human CGRP
[26] = test system: healthy human subjects; assay: Human single ascending dose study, bowel movements; format: in vivo
[27] = molecular target: Rat GABA (non-selective); assay: Radioligand binding: Rat GABA; conditions: [3H]-GABA 10 nM
[28] = molecular target: Guinea pig H2 (Cavia porcellus, UniProt P47747); assay: Radioligand binding: Guinea pig H2
[29] = molecular target: Rat Ca2+ channel (L, diltiazem site); assay: Radioligand binding: Rat Ca2+ channel; conditions: [3H]-diltiazem 5 nM
[30] = molecular target: Rat kainate; assay: Radioligand binding: Rat kainate; conditions: [3H]-kainic acid 5 nM
[31] = molecular target: Guinea pig κ kappa (Cavia porcellus, UniProt P41144); assay: Radioligand binding: Guinea pig κ opiate receptor
[32] = molecular target: Rat α1 (non-selective); assay: Radioligand binding: Rat α1; conditions: [3H]-prazosin 0.25 nM
[33] = molecular target: Human D2S (Homo sapiens, UniProt P14416); assay: Radioligand binding: Human D2S
[34] = molecular target: Human NK1 (Homo sapiens, UniProt P25103); assay: Radioligand binding: Human NK1
[35] = read-out: % Inhibition of specific binding (1 μM)

Chain of Human COX1 (P23219 24-599): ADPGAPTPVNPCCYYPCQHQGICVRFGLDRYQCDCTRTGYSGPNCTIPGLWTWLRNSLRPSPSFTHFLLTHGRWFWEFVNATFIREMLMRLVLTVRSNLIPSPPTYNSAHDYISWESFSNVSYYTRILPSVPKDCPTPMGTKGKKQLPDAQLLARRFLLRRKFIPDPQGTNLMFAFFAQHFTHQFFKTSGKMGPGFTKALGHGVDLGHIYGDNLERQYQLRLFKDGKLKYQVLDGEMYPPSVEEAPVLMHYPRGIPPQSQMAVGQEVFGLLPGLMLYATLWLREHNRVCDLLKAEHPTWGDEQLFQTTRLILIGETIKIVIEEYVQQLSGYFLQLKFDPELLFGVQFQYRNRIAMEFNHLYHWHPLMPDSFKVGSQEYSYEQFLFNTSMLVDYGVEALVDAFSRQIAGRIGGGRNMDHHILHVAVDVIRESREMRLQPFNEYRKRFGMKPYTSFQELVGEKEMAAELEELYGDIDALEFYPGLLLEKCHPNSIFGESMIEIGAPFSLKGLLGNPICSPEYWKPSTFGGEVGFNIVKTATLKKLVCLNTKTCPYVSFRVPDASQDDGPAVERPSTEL
Chain of Human VPAC1 (VIP1) (P32241 31-457): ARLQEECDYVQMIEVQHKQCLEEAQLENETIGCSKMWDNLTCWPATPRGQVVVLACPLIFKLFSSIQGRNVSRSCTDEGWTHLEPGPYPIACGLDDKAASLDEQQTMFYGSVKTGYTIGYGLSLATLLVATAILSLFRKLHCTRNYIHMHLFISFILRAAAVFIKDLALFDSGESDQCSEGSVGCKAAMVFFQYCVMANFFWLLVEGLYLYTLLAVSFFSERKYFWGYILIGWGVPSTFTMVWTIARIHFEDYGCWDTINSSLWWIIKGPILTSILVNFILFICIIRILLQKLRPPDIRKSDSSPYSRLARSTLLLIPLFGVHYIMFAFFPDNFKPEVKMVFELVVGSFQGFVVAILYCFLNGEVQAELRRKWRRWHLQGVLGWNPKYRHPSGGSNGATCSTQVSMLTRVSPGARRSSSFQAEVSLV
Chain of Human A1 (P30542 whole entry): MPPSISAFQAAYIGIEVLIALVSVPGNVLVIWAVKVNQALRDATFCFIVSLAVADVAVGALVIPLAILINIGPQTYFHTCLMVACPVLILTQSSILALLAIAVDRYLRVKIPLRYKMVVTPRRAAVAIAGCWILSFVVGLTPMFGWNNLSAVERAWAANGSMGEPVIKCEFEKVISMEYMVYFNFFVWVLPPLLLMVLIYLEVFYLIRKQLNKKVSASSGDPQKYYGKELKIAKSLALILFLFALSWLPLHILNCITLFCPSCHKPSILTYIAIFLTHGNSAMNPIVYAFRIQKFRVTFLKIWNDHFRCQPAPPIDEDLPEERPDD
Chain of Guinea pig H2 (P47747 whole entry): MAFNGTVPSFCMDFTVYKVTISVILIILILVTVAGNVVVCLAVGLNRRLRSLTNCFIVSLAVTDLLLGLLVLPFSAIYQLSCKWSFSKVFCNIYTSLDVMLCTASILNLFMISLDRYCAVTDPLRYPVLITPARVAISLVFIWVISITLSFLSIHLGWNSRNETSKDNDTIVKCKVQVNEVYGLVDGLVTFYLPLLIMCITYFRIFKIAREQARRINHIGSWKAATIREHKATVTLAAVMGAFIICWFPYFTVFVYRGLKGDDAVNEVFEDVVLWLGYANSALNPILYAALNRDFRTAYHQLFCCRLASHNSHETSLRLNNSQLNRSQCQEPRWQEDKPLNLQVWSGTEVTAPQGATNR
Chain of Rat α7 nAChR (α-BGTX-sensitive) (Q05941 23-502): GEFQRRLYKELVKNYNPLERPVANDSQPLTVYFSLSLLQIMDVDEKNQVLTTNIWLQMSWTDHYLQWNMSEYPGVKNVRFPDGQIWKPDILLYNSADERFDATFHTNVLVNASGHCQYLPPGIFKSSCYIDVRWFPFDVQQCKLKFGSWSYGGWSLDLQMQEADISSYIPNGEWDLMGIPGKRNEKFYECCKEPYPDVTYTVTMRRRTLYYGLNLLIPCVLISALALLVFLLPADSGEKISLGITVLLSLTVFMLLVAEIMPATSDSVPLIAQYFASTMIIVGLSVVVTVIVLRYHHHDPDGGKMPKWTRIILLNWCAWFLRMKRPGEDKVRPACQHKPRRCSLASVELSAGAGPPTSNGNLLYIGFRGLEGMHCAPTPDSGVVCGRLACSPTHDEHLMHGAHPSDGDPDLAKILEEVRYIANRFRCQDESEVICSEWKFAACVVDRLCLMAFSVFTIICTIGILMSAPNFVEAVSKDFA
Chain of Rat CRF1 (P35353 24-415): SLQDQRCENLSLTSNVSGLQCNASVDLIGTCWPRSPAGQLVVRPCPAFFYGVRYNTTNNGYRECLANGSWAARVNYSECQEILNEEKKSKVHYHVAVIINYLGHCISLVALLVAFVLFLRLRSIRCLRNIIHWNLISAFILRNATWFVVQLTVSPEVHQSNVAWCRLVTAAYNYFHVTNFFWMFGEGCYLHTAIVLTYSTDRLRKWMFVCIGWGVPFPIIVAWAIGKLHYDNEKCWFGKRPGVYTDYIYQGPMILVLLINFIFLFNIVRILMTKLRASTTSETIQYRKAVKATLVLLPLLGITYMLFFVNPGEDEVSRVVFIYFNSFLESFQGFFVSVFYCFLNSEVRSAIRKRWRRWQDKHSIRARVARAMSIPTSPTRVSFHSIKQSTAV
Chain of Human NK1 (P25103 whole entry): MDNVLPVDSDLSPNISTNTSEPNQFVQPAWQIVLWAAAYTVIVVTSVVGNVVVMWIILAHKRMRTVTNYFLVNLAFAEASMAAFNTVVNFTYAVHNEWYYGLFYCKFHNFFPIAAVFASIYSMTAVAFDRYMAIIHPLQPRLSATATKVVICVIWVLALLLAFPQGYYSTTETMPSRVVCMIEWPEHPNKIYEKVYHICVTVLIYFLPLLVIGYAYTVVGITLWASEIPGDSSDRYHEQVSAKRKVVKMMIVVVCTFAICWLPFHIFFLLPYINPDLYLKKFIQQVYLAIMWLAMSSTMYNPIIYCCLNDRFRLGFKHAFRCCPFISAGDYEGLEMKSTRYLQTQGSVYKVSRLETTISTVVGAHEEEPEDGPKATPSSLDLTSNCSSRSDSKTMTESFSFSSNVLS
Chain of 5-HT4 receptor (O70528 whole entry): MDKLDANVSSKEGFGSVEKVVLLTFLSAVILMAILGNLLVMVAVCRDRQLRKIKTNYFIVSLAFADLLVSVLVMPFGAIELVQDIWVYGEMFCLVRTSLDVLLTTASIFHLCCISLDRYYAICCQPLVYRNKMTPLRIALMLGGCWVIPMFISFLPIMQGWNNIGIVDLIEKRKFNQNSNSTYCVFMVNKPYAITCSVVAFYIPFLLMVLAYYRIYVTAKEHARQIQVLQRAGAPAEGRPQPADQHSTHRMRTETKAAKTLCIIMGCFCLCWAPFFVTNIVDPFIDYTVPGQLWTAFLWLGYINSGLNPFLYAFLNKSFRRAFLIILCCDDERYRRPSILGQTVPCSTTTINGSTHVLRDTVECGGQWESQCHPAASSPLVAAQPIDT
Chain of Human V1a (P37288 whole entry): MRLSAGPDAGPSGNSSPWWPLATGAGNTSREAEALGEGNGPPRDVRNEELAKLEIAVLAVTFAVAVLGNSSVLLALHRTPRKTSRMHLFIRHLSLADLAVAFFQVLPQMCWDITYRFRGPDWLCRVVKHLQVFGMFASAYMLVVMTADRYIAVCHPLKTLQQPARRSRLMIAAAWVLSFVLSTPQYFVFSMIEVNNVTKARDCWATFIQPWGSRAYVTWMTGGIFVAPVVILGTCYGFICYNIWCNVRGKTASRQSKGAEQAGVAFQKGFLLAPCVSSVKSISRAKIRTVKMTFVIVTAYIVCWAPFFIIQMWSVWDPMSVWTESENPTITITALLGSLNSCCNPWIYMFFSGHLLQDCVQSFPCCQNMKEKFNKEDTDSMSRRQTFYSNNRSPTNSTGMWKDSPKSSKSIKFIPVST
Chain of Human B2 (P30411 whole entry): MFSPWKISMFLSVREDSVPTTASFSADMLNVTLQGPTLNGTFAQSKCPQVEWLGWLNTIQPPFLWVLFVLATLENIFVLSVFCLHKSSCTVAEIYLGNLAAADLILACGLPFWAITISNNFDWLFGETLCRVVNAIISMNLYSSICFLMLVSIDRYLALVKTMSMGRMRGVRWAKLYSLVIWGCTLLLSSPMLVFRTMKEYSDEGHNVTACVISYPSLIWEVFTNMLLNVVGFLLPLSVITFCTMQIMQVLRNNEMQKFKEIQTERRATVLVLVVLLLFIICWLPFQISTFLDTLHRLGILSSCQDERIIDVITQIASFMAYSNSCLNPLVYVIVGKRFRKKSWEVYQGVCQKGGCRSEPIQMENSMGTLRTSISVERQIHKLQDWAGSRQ
Chain of Guinea pig κ kappa (P41144 whole entry): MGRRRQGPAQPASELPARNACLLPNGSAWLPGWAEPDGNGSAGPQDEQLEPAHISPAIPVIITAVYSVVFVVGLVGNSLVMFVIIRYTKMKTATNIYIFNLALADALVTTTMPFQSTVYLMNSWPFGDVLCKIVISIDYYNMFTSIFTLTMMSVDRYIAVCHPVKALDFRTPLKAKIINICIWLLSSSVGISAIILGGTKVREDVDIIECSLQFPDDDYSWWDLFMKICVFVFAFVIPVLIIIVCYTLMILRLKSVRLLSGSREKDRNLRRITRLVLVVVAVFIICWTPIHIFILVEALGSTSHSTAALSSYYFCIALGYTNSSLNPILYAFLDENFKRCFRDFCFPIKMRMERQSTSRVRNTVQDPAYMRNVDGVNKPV
Chain of Human Y1 (P25929 whole entry): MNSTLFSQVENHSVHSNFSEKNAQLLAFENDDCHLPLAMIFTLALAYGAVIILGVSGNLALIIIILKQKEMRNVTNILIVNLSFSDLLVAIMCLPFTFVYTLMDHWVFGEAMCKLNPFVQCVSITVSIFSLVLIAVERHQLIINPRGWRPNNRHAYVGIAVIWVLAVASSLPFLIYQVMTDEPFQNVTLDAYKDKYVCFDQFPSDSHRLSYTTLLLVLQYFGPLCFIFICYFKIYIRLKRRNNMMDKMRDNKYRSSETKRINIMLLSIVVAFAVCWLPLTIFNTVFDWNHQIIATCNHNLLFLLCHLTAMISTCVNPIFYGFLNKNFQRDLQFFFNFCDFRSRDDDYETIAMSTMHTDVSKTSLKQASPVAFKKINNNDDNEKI

SMILES: COC(=O)N1CCC(CN2CCC(CNC(=O)c3cccc4[nH]c(C(C)C)nc34)CC2)CC1 [TD-8954, 4-(4-{[(2-isopropyl-1H-benzoimidazole-4-carbonyl)amino]methyl}-piperidin-1-ylmethyl)piperidine-1-carboxylic acid methyl ester]
- Ki [1]: > 1000 nM
- inhibition at 1 µM [1, 35]: 2%
- dose associated with a relaxation response of 0.1 mm [2]: 0.23 mg/kg
- pKi [3]: <6
- Ki [4]: > 1000 nM
- inhibition at 1 µM [4, 35]: -4%
- Ki [5]: > 1000 nM
- pKi [6]: <6
- % Inhibition of specific binding (1 μM) ([6]; TD-8954 1 μM): −6%
- pKi [7]: <6
- % Inhibition of specific binding (1 μM) ([7]; TD-8954 1 μM): 4%
- Ki [8]: > 1000 nM
- Ki [9]: > 1000 nM
- pKi [10]: <6
- Ki [11]: > 1000 nM
- Ki [12]: > 1000 nM
- inhibition at 1 µM [12, 35]: 1%
- Ki [13]: > 1000 nM
- inhibition at 1 µM [13, 35]: 3%
- Ki [14]: > 1000 nM
- Ki [15]: > 1000 nM
- inhibition at 1 µM [15, 35]: -2%
- Guinea pig colonic LMMP contractile activity IA (mean % 5-HT max ± SEM) [16]: 55 % 5-HT max and 55 ± 2 % 5-HT max
- IC50 [17]: > 1000 nM
- inhibition at 1 µM ([17]; read-out: % Inhibition of control (1 μM)): 2%
- Ki [18]: > 1000 nM
- lowest dose tested, significantly active on colonic transit [19]: 0.03 mg/kg
- Ki [20]: > 1000 nM
- inhibition at 1 µM [20, 35]: 3%
- Ki [21]: > 1000 nM
- inhibition at 1 µM [22]: 5%
- Ki [23]: > 1000 nM
- inhibition at 1 µM [23, 35]: -6%
- Ki [24]: > 10000 nM
- Ki [25]: > 1000 nM
- dose producing a maximal response ([26]; single oral dose): 0.5 mg
- lowest dose associated with a prokinetic effect ([26]; single oral dose): 0.1 mg
- time to first bowel movement compared to placebo ([26]; single oral dose 0.1–20 mg, p < 0.05): statistically significant reduction
- pKi [27]: <6
- % Inhibition of specific binding (1 μM) ([27]; TD-8954 1 μM): −6%
- Ki [28]: > 1000 nM
- inhibition at 1 µM [28, 35]: 4%
- pKi [29]: <6
- pKi [30]: <6
- % Inhibition of specific binding (1 μM) ([30]; TD-8954 1 μM): −6%
- Ki [31]: > 1000 nM
- inhibition at 1 µM [31, 35]: 22%
- pKi [32]: <6
- % Inhibition of specific binding (1 μM) ([32]; TD-8954 1 μM): −1%
- Ki [33]: > 1000 nM
- inhibition at 1 µM [33, 35]: 6%
- Ki [34]: > 1000 nM
- inhibition at 1 µM [34, 35]: -2%
